{
  "source": "paper PMC9386018",
  "about": "“A lymphatic-absorbed multi-targeted kinase inhibitor for myelofibrosis therapy” (Nature Communications, 2022)",
  "key": {"SET-2 cells": {"tested_on": "SET-2 cells", "experiment": "SET-2 proliferation assay (CellTiter-Fluor)", "assay_type": "cell-based, human", "details": "72 h, replicates (Fig. 2d)", "protocol": "Viable cells were counted by CellTiter-Fluor Assay (Promega) according to manufacturer’s protocol, and all fluorescence values were corrected by a no-cell control. […] Caspase activity was measured by Caspase-Glo 3/7 assay (Promega) according to the manufacturer’s protocol, and all luminescence values were corrected by a no-cell control. Dose response proliferation and Caspase activation data was normalized to vehicle treated control cells and analyzed by non-linear regression for determination of IC50 values. Data was generated from n = 3 independent experiments performed in replicate."}, "PI3Kγ": {"molecular_target": "PI3Kγ (Homo sapiens, UniProt P48736)", "sequence (P48736 whole entry, canonical isoform)": "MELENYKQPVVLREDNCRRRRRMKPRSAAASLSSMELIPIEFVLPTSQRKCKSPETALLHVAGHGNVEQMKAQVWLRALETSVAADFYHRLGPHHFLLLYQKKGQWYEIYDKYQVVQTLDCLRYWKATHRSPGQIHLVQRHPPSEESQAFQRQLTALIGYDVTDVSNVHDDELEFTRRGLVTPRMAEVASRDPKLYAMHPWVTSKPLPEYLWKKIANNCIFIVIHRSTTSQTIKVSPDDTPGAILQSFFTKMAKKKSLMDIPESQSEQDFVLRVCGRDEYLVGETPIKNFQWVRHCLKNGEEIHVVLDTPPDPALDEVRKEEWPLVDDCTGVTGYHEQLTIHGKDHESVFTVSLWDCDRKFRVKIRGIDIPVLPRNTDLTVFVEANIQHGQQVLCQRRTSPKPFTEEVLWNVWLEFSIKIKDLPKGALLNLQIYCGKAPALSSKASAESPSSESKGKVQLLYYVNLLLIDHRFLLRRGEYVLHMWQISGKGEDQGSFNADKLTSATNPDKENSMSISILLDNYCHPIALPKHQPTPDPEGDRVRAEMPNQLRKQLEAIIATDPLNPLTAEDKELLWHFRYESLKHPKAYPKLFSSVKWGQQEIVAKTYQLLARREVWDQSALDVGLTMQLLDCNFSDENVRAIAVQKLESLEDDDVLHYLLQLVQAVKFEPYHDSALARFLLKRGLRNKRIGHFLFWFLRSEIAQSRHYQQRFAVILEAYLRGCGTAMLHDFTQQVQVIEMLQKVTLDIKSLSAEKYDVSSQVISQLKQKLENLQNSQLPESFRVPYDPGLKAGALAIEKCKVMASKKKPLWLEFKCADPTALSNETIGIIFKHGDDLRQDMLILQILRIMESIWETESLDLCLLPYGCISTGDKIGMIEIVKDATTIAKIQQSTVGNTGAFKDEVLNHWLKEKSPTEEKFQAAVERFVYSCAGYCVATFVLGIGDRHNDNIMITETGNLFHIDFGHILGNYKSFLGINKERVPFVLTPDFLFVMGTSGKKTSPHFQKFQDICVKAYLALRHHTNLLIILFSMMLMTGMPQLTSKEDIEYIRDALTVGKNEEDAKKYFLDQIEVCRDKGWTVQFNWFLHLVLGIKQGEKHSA", "experiment": "Target kinase 10-point inhibition assay, PI3Kγ", "assay_type": "biochemical", "details": "PI3K gamma, replicates", "protocol": "Quantitation of kinase inhibition was carried out by Life Technologies (Madison, WI) using the SelectScreen profiling platforms Z’-LYTE^TM and Adapta^TM. Single-point broad panel kinome screening was performed at 2.5 µM LP-182 against all kinases within the Z’-LYTE^TM and Adapta^TM assays (321 kinase isoforms, holoenzymes, or mutant variants). The average percent kinase inhibition from replicate data was ranked low to high, converted to a compatible identifier format, then input into Coral Human Kinome Visualization software for presentation analysis. […] Scaling of evolutionary distance for PI kinases is only relative and is based on literature analysis[62],[63]. Average percent kinome inhibition values from replicate data are supplied in Source Data file. […]. Corrected data was normalized to vehicle treated control values, and dose response percent kinase activity was analyzed by non-linear regression for determination of IC50 values."}, "[1]": {"molecular_target": "T1, Target kinase isoforms (PI3K, mTOR, RAF, MEK) (Homo sapiens, UniProt O00329)", "T1 sequence (O00329 1-1044)": "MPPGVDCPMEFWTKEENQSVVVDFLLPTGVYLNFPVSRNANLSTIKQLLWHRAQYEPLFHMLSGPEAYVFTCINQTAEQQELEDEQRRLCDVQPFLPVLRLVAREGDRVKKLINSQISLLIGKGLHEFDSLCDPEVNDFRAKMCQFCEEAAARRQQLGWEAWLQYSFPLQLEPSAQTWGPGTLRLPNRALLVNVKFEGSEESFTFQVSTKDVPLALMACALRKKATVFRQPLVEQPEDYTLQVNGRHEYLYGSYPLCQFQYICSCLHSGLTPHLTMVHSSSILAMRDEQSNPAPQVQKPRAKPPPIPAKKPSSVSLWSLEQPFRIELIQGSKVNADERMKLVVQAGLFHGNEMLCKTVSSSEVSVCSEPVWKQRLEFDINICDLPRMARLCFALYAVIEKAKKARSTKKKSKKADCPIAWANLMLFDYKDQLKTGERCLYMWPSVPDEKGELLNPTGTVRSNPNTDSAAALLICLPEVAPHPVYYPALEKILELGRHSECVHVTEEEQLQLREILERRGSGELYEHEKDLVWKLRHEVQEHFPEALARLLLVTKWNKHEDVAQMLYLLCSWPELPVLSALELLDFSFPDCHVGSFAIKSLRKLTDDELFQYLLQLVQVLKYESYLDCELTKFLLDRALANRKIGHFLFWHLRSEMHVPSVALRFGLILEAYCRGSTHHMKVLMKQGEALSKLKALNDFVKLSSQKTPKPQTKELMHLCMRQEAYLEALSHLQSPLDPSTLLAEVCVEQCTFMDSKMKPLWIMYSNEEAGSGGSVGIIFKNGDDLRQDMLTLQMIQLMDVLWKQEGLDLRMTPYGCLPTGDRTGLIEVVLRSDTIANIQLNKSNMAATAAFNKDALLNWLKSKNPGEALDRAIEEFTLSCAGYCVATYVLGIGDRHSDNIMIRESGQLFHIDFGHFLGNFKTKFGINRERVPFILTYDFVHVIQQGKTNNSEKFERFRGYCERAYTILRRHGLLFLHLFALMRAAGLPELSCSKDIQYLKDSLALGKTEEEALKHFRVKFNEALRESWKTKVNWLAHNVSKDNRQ", "experiment": "Target kinase isoforms 10-point IC50 determination (Supplementary Fig. 7)", "assay_type": "biochemical", "details": "PI3K delta", "in_short": "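Kinase activity across a 10-point dose series was corrected and normalized to vehicle-treated controls. IC50 values were derived by non-linear regression of percent activity. Kinome-wide percent inhibition was averaged over replicates.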"}},
  "note": "Values joined by “and” are separate entries in the source; they are usually repeats but may differ in a detail not shown here. Equal entries are not always repeated.",
  "data": [
    {"compound": "O=S(=O)(Nc1cc(-c2ccc3ncc(N4CCNCC4)nc3c2)cnc1Cl)c1ccc(F)cc1", "note": "[LP-527, N-(2-chloro-5-(3-(piperazin-1-yl)quinoxalin-6-yl)pyridin-3-yl)-4-fluorobenzenesulfonamide]", "values": [
      {"measurement": "Growth (%)", "setting": "SET-2 cells; 0.0390625 µM", "value": "97.7197% and 103.197% and 95.0232% and 96.0199% and 87.1186% and 84.2432%"},
      {"measurement": "Growth (%)", "setting": "SET-2 cells; 0.078125 µM", "value": "102.201% and 95.8185% and 100.256% and 94.6633% and 89.3668% and 84.7402%"},
      {"measurement": "Growth (%)", "setting": "SET-2 cells; 0.15625 µM", "value": "60.7367% and 65.6255% and 73.87% and 70.9074% and 80.6697% and 85.462%"},
      {"measurement": "Growth (%)", "setting": "SET-2 cells; 0.3125 µM", "value": "89.6622% and 88.0779% and 85.9694% and 85.0557% and 87.935% and 90.4791%"},
      {"measurement": "Growth (%)", "setting": "SET-2 cells; 0.625 µM", "value": "81.0162% and 91.3823% and 77.1925% and 82.0932% and 77.6879% and 82.066%"},
      {"measurement": "Growth (%)", "setting": "SET-2 cells; 5 µM", "value": "12.7992% and 7.412% and 15.3388% and 14.5913% and 45.9761% and 39.8941%"},
      {"measurement": "Growth (%)", "setting": "SET-2 cells; 10 µM", "value": "-3.542% and -5.534% and -4.236% and 0.443% and 15.3648% and 16.0393%"},
      {"measurement": "Growth (%)", "setting": "SET-2 cells; 20 µM", "value": "-8.838% and -10.5585% and -11.075% and -10.5212% and 6.443% and 9.661%"},
      {"measurement": "activity at 18.7 pM", "setting": "PI3Kγ; 0.0187 nM", "value": 98, "unit": "%"},
      {"measurement": "Kinase Activity (%)", "setting": "PI3Kγ; 0.0187 nM, 18.7 pM", "value": "118% and 115% and 109%"},
      {"measurement": "Kinase Activity (%)", "setting": "PI3Kγ; 0.0562 nM, 56.2 pM", "value": "103% and 91% and 124%"},
      {"measurement": "Kinase Activity (%)", "setting": "PI3Kγ; 0.495 nM, 0.000495 µM", "value": "94% (2×) and 75% and 83% and 72% and 100% and 97% and 99% and 96%"},
      {"measurement": "Kinase Activity (%)", "setting": "PI3Kγ; 1.52 nM, 0.00152 µM", "value": "67% and 68% and 73% and 64% and 69% (2×) and 94% and 93% and 92% and 65%"},
      {"measurement": "Kinase Activity (%)", "setting": "PI3Kγ; 4.57 nM, 0.00457 µM", "value": "52% and 53% and 49% and 45% and 47% and 76% and 79% and 62% and 70% and 55%"},
      {"measurement": "Kinase Activity (%)", "setting": "PI3Kγ; 41.2 nM, 0.0412 µM", "value": "18% and 7% and 11% and 10% and 9% and 25% and 24% and 17% and 23% and 14%"},
      {"measurement": "Kinase Activity (%)", "setting": "PI3Kγ; 123 nM, 0.123 µM", "value": "5% and 3% (2×) and 6% and 4% and 11% and 10% (2×) and 9% and 8%"},
      {"measurement": "Kinase Activity (%)", "setting": "PI3Kγ; 1110 nM, 1.11 µM", "value": "0% (4×) and 8% and 1%"},
      {"measurement": "Kinase Activity (%)", "setting": "PI3Kγ; 3330 nM, 3.33 µM", "value": "0% (5×) and 3%"},
      {"measurement": "Kinase Activity (%)", "setting": "PI3Kγ; 10000 nM, 10 µM", "value": "3% and 0% (4×) and 8%"},
      {"measurement": "activity at 6.09 pM", "setting": "PI3Kγ; […]", "value": 102, "unit": "%"},
      {"measurement": "Kinase Activity (%) PI3K delta", "setting": "[1]; concentration 0.0187 nM, 18.7 pM", "value": "106% and 96% and 89% and 81%"},
      {"measurement": "Kinase Activity (%) PI3K delta", "setting": "[1]; concentration 0.0562 nM, 56.2 pM", "value": "100% and 95% and 78% and 86% and 79% and 91%"},
      {"measurement": "Kinase Activity (%) PI3K delta", "setting": "[1]; concentration 41.2 nM, 0.0412 µM", "value": "2% and 3%"},
      {"measurement": "Kinase Activity (%) PI3K delta", "setting": "[1]; concentration 123 nM, 0.123 µM", "value": "1% and 3%"},
      {"measurement": "Kinase Activity (%) PI3K delta", "setting": "[1]; concentration 370 nM, […]", "value": 2, "unit": "%"},
      {"measurement": "activity at 1.11 µM", "setting": "[1]; concentration 1110 nM", "value": 0, "unit": "%"},
      {"measurement": "Kinase Activity (%) PI3K delta", "setting": "[1]; concentration 3330 nM, 3.33 µM", "value": 2, "unit": "%"},
      {"measurement": "Kinase Activity (%) PI3K delta", "setting": "[1]; concentration 10000 nM, 10 µM", "value": 9, "unit": "%"}
    ]}
  ]
}
